US20070203066A1, “Compositions and methods for inhibiting cellular proliferation” (priority 2005, published 2007)
Like-named read-outs stand apart in the source and are kept apart here. Non-standard residues stand in square brackets, D forms with d. Primed or numbered codes have the meaning given here. No end group written: not given here. Ida(3) = iminodiacetic acid linker, Lys side-chain amines bound to its two carboxyl groups; Ida(4) = iminodiacetic acid linker (dimerization linker bound to lysine side chain); Ida″ = iminodiacetic acid linker bound to the Lys side-chain amine, forming a dimer; Phg = N[C@H](C(=O)O)c1ccccc1; acyl = not defined here; Ahx = NCCCCCC(=O)O

System: HUVECs
Type: cell-based
Procedure: HUVECs were routinely cultured to near confluency in EGM media (Clontech, Mountain View, California). The cells were trypsinized and plated in a 96-well plate at 5,000 cells per well per 100 μl EBM supplemented with 2% FCS and antibiotics. The cells were allowed to adhere to the plate for at least 12 hours. Then, bFGF at 10 ng/ml or VEGF at 5 ng/ml, and various concentrations of peptide, were added to the wells. The cells were cultured for 48 hours at 37 ° C. in a 5% CO2 atmosphere. Cell proliferation was determined using a bromo-deoxyuridine (BrdU) incorporation method as described by the manufacturer. Inhibition of cell proliferation was assessed by BrdU incorporation.

[1] = HUVEC proliferation, bFGF at 10 ng/ml or VEGF at 5 ng/ml, 48 hours, BrdU incorporation, read-out: IC50 on HUVECs

“215 (Ac-ARRRAQRVAIIF; also: dimer: Phe C-termini joined via Lys linker) [compound 215]” gave an IC50 [1] of less than 10 µM.

Compound KTKRKRKKQRVKRAYEEIF [compound 136] has an IC50 [1] greater than 30 µM.

Compound “478 (Ac-PRRRTQAVAIYFK(Ida(3)); not fully specified (C-terminus); also: homodimer via Ida linker on Lys13 side chain) [compound 478]” has an IC50 [1] of 10 to 30 µM.

“370 (Ac-ARRRRQRVAFYFK-NH2; not fully specified (residue 13); also: homodimer via Ida linker on Lys13 side chain, Boc on Ida amine) [compound 370]” was tested, and the IC50 [1] was less than 10 µM.

For “366 (Ac-ARRRRQRVAHYFK-NH2; not fully specified (residue 13); also: homodimer of residues 1-13 via Ida linker on K13 side chain) [compound 366]”, the IC50 [1] was greater than 30 µM.

In the case of “500 (Ac-PRRNRQAVAIYFK(Ida″); not fully specified (C-terminus); also: homodimer via Ida linker on Lys13 side chain) [compound 500]”, the IC50 [1] is reported as less than 10 µM.

“263 (Ac-A[dR]RRRQRVAIIFK-NH2; not fully specified (residue 13); also: homodimer via Ida linker on Lys13 side chains) [compound 263]” showed an IC50 [1] of less than 10 µM.

“345 (Ac-ARRRRQRVAIYWK-NH2; not fully specified (residue 13); also: homodimer of residues 1-13 via Ida linker on Lys13 side chain) [compound 345]” was tested, and the IC50 [1] was less than 10 µM.

For “360 (Ac-RRRHRQHVHIYFK(Ida(3))-NH2; also: homodimer via Ida linker on Lys13 side chain, Boc on Ida amine) [compound 360]”, the IC50 [1] was less than 10 µM.

Compound “356 (Ac-A[dR]RRRQRVAIIFK; not fully specified) [compound 356]” has an IC50 [1] greater than 30 µM.

In the case of “210 (Ac-RRRRAQRVAIIF; also: dimer: Phe C-termini joined via Lys linker) [compound 210]”, the IC50 [1] is reported as less than 10 µM.

“275 (Ac-RARRRQAVAIYFK-NH2; not fully specified (residue 13); also: homodimer via Ida linker on Lys13 side chain) [compound 275]” gave an IC50 [1] of less than 10 µM.

For “452 (Ac-PRRRRQAVAIVFK-NH2; not fully specified (residue 13); also: homodimer via Ida linker at K13) [compound 452]”, the IC50 [1] was less than 10 µM.

In the case of “492 (Ac-ARRRNQSVAIKF; not fully specified (residue 11); also: homodimer: Lys11 side chain bound to Ida linker (Boc on Ida N)) [compound 492]”, the IC50 [1] is reported as 10 to 30 µM.

In the case of KTKRKRKKQRVKIA [compound 37], the IC50 [1] is reported as greater than 30 µM.

For “508 (Ac-CNGRCGGARRRRQRVAIYFK; not fully specified (C-terminus); cysteine pairing not given here; also: homodimer via Ida linker at Lys20 side chain) [compound 508]”, the IC50 [1] was less than 10 µM.

KTKRKRKKQRVKIIFAQNM [compound 108] showed an IC50 [1] of 10 to 30 µM.

Work on “192 (Ac-ARARRQRVRIIF; also: dimer: C-terminal Phe bound to an amino group of a Lys linker, 2 chains per Lys) [compound 192]” yielded an IC50 [1] of less than 10 µM.

“461 (Ac-ARRRK(Ida(3))QAVAIYF; also: homodimer via Ida linker on Lys side chains, linker at 5 via Ida, other end not in the chain) [compound 461]” gave an IC50 [1] of 10 to 30 µM.

“467 (Ac-ARK(Ida(3))RRQAVAIYF; also: homodimer via Ida linker on Lys3 side chain) [compound 467]” was tested, and the IC50 [1] was greater than 30 µM.

In the case of KKQRVKIAYEEIF [compound 70], the IC50 [1] is reported as greater than 30 µM.

In the case of KRKKQRVKIAYEEIFVKNM [compound 10], the IC50 [1] is reported as 10 to 30 µM.

“188 (Ac-RRRRHQRVRIIF; also: dimer: C-terminal Phe bound to an amino group of a Lys linker, 2 chains per Lys) [compound 188]” gave an IC50 [1] of less than 10 µM.

Work on TKRKRKKQRVKIIFV [compound 86] yielded an IC50 [1] of 10 to 30 µM.

For KTKRKRKKQRVKIAYEEI [compound 17], the IC50 [1] was 10 to 30 µM.

With “405 (Ac-LRRRRQAVAIYFK(Ida(3))-NH2; also: homodimer via Ida linker on Lys13 side chain, Boc on Ida amine) [compound 405]” the IC50 [1] was less than 10 µM.

In the case of “374 (Ac-ARRRRQRVA[Phg]YFK(Ida(3))-NH2; also: homodimer via Ida linker on Lys13 side chain, Boc on Ida amine) [compound 374]”, the IC50 [1] is reported as less than 10 µM.

Work on KTKRKRKKQRVKIIFV [compound 85] yielded an IC50 [1] of less than 10 µM.

With “496 (Ac-PRHRRQAVAIYFK(Ida″); not fully specified (C-terminus); also: homodimer via Ida linker on Lys13 side chain) [compound 496]” the IC50 [1] was 10 to 30 µM.

Work on KAKRKRKKQRVKIIFVQNM [compound 122] yielded an IC50 [1] of less than 10 µM.

In the case of “187 (Ac-RRRHRQRVRIIF; also: dimer: C-terminal Phe bound to an amino group of a Lys linker, 2 chains per Lys) [compound 187]”, the IC50 [1] is reported as less than 10 µM.

“486 (Ac-ARRRRQSVAIKF; not fully specified (residue 11); also: homodimer: Lys11 side chain bound to Ida linker (Boc on Ida N)) [compound 486]” showed an IC50 [1] of less than 10 µM.

In the case of KTKRKRKKIAYEEIFVQNM [compound 58], the IC50 [1] is reported as greater than 30 µM.

`CC[C@H](C)[C@H](NC(=O)[C@H](C)NC(=O)[C@@H](NC(=O)[C@H](C)NC(=O)[C@H](CCC(N)=O)NC(=O)[C@H](CCCNC(=N)N)NC(=O)[C@H](CCCNC(=N)N)NC(=O)[C@H](CCCNC(=N)N)NC(=O)[C@H](CCCNC(=N)N)NC(=O)[C@H](CCCNC(=N)N)NC(C)=O)C(C)C)C(=O)N[C@@H](Cc1ccc(O)cc1)C(=O)N[C@@H](Cc1ccccc1)C(=O)N[C@@H](CCCCNC(=O)CN(CC(=O)NCCCC[C@H](NC(=O)[C@H](Cc1ccccc1)NC(=O)[C@H](Cc1ccc(O)cc1)NC(=O)[C@@H](NC(=O)[C@H](C)NC(=O)[C@@H](NC(=O)[C@H](C)NC(=O)[C@H](CCC(N)=O)NC(=O)[C@H](CCCNC(=N)N)NC(=O)[C@H](CCCNC(=N)N)NC(=O)[C@H](CCCNC(=N)N)NC(=O)[C@H](CCCNC(=N)N)NC(=O)[C@H](CCCNC(=N)N)NC(C)=O)C(C)C)[C@@H](C)CC)C(N)=O)C(=O)CCNC(=O)OC(C)(C)C)C(N)=O` [Peptide 267] showed an IC50 (48 h) of less than 10 µM.

Compound “505 (Ac-PRRYRQAVAIYFK; not fully specified (residue 13, C-terminus); also: homodimer via Ida linker on Lys13 side chain) [compound 505]” has an IC50 [1] of less than 10 µM.

Compound “59 ([Ahx]RTRRRRRRQRVRIAYEEIFVRNM; also: homodimer of residues 1-24 via Ida linker on Ahx amino group) [compound 59]” has an IC50 [1] greater than 30 µM.

In the case of “436 (Ac-RRRRLQAVAIYFK(Ida(4)); not fully specified (C-terminus); also: homodimer via Ida linker at K13) [compound 436]”, the IC50 [1] is reported as less than 10 µM.

“284 (Ac-RRRRHQHVAIYFK-NH2; not fully specified (residue 13); also: homodimer: Lys13 side chain bound to Ida linker) [compound 284]” gave an IC50 [1] of less than 10 µM.

KTKRKRKKQRVKIAYEEIFV [compound 15] showed an IC50 [1] of less than 10 µM.

For YGRKKRRQRRR [compound 445], the IC50 [1] was greater than 30 µM.

Work on “172 (acyl-KRRRRRQRVRIIF; not fully specified (residue 1); reading uncertain; also: homodimer via Ida-PEG 20 kDa linker on Lys1 side chains, acyl group not given here) [compound 172]” yielded an IC50 [1] of less than 10 µM.

For KTKRKRKAQRVKIIFVQNM [compound 116], the IC50 [1] was less than 10 µM.

“204 (Ac-RRARRQAVRIIF; also: dimer: C-terminal Phe bound to an amino group of a Lys linker, 2 chains per Lys) [compound 204]” gave an IC50 [1] of less than 10 µM.

For “473 (Ac-PRRRLQAVAIYFK(Ida(3)); not fully specified (C-terminus); also: homodimer via Ida linker on Lys13 side chain) [compound 473]”, the IC50 [1] was greater than 30 µM.

“511 (Ac-ARRRRFRVAIYFK; not fully specified (C-terminus); also: homodimer via Ida linker at Lys13 side chain) [compound 511]” was tested, and the IC50 [1] was 10 to 30 µM.

In the case of `CC[C@H](C)[C@H](NC(=O)[C@H](C)NC(=O)[C@@H](NC(=O)[C@H](CCCNC(=N)N)NC(=O)[C@H](CCC(N)=O)NC(=O)[C@H](CCCNC(=N)N)NC(=O)[C@H](CCCNC(=N)N)NC(=O)[C@H](CCCNC(=N)N)NC(=O)[C@H](CCCNC(=N)N)NC(=O)[C@H](C)NC(C)=O)C(C)C)C(=O)N[C@@H](Cc1ccc(O)cc1)C(=O)N[C@@H](Cc1ccccc1)C(=O)N[C@@H](CCCCNC(=O)CN(CC(=O)NCCCC[C@H](NC(=O)[C@H](Cc1ccccc1)NC(=O)[C@H](Cc1ccc(O)cc1)NC(=O)[C@@H](NC(=O)[C@H](C)NC(=O)[C@@H](NC(=O)[C@H](CCCNC(=N)N)NC(=O)[C@H](CCC(N)=O)NC(=O)[C@H](CCCNC(=N)N)NC(=O)[C@H](CCCNC(=N)N)NC(=O)[C@H](CCCNC(=N)N)NC(=O)[C@H](CCCNC(=N)N)NC(=O)[C@H](C)NC(C)=O)C(C)C)[C@@H](C)CC)C(N)=O)C(=O)CCNC(=O)OC(C)(C)C)C(N)=O` [Peptide 228], the IC50 (48 h) is reported as less than 10 µM.

“459 (Ac-KRRRRQAVAIYF; not fully specified (residue 1); also: homodimer via Ida linker on Lys side chains, linker at 1 via Ida, other end not in the chain) [compound 459]” showed an IC50 [1] greater than 30 µM.
